In this assay the test system is Spodoptera frugiperda. In words: Laboratory test of 2nd instar larva of Spodoptera frugiperda on maize leaves (mortality). The class given is in vivo.

With `CNC(=O)c1cc(Cl)cc(C)c1NC(=O)c1cc(Br)nn1-c1ncccc1Cl` [Compound 2, 3-bromo-N-[4-chloro-2-methyl-6-[(methylamino)carbonyl]phenyl]-1-(3-chloro-2-pyridinyl)-1H-pyrazole-5-carboxamide], the “concentration per g of leaf tissue resulting in 50% mortality within 72 h” value (50% mortality within 72 h) is on record as 0.033 micrograms per g of leaf tissu. The “concentration per g of tissue needed to achieve 100% mortality within 72 h” value (100% mortality within 72 h) was 0.037 micrograms per g of tissue.

The values are drawn from patent publication US9149039B2, “Anthranilic diamide/polymer propagule-coating compositions” (E I DU PONT DE NEMOURS AND COMPANY, priority 2011, dated 2015).
